The source of these data is US8778890B2, “Leptin antagonist and methods of use” (Temple University—of the Commonwealth System of Higher …, priority 2009, dated 2014).

The subject of series [1] is ObR-positive cancer cells (brain and breast). The series is classed as cell-based. The procedure:
The effect of the peptides of the invention on the proliferation of ObR-positive cancer cells (brain and breast) in the presence (IC50) or absence (EC50) of exogenous leptin protein (6 nM) is summarized in Table 1.

Series [2] is described as follows: weight gain of growing mice. The series is classed as in vivo. The procedure: Six weeks old Black/6 mice (mixed race) and F344 female rats were grown on regular lab chow and had access to food and water ad libidum. Treatment started at day 0, with four mice (2 males and 2 females) and 4 rats per group. The animals received the peptide of amino acid sequence SEQ ID NO:4 or physiological salt solution once daily. The mice and rats were dosed according to the following schedule: • Group 1: Mice, salt solution intraperitoneally; • Groups 2 and 3: Mice 0.1 mg/kg/day or 0.01 mg/kg/day peptide of amino acid sequence SEQ ID NO:4 intraperitoneally in 100 microliter salt solution; • Groups 4 and 5: Mice 1 mg/kg/day or 0.1 mg/kg/day peptide of amino acid sequence SEQ ID NO:4 subcutaneously (under the shoulder blade) in 100 microliter salt solution; • Groups 6 and 7: Mice 10 mg/kg/day or 1 mg/kg/day peptide of amino acid sequence SEQ ID NO:4 orally in 100 microliter salt solution; • Group 8: Rats, 10 microliter salt solution, intranasally; • Group 9: Rats. 0.1 mg/kg/day peptide of amino acid sequence SEQ ID NO:4 intranasally in 10 microliter salt solution. […]
The therapeutic utility of full ObR antagonists was studied further by the ability of peptide of amino acid sequence SEQ ID NO:4 to increase the appetite of normal, growing mice as measured by accelerated weight gain and increased food intake upon various modes of peptide administration. […]

The test system of series [3] is MCF-7 breast cancer cells (ObR-positive). The series is classed as cell-based, human. The text has this: (§1) Immunol. Methods 94:57-63).
Series [4] in a line: serum stability. The series is classed as in vitro ADME, mouse. On the procedure: The stabilities of the peptides of amino acid sequence SEQ ID NO:4 and SEQ ID NO:49 were determined in 25% serum, and 100% serum, in terms of their half-lives. For serum stability studies, […] of an aqueous peptide stock solution, containing about 0.8 mg/mL peptide, were added to 2.5 mL of 25% or 100% aqueous pooled mouse serum. The peptide-serum mixture was thermostated at 37° C. After 0 min, 45 min, 60 min, 90 min, 2 h, 4 h, and 8 h, three 210 μL of the samples of peptides were taken and precipitated by the addition of 40 μL of 15% aqueous trichloroacetic acid. The samples were stored at 4° C. for 20 min and centrifuged. The supernatants were immediately frozen in dry-ice, and […], of each were analyzed on RP-HPLC and/or MALDI-MS.

A short description of series [5]: chronic and acute toxicity. The class given is in vivo, mice. The procedure: The peptide of amino acid sequence SEQ ID NO:4 was evaluated for chronic and acute toxicity in mice. Three female Black/6 mice received intraperitoneally either bolus 0.5 mg/kg or 2 mg/kg or 30 mg/kg peptide SEQ ID NO:4, or 0.5 mg/kg/day or 2 mg/kg/day peptide SEQ ID NO:4 over a 10 day period. Two days after termination of the experiments, the mice were weighed and sacrificed, and the livers, brains, spleens and kidneys were weighed.

Series [6] is described as follows: organ toxicity testing after 14 days of treatment (Example 4). The series is classed as in vivo, mice and rats. The following applies: any conditions. The procedure:
Six weeks old Black/6 mice (mixed race) and F344 female rats were grown on regular lab chow and had access to food and water ad libidum. Treatment started at day 0, with four mice (2 males and 2 females) and 4 rats per group. The animals received the peptide of amino acid sequence SEQ ID NO:4 or physiological salt solution once daily. The mice and rats were dosed according to the following schedule: • Group 1: Mice, salt solution intraperitoneally; • Groups 2 and 3: Mice 0.1 mg/kg/day or 0.01 mg/kg/day peptide of amino acid sequence SEQ ID NO:4 intraperitoneally in 100 microliter salt solution; • Groups 4 and 5: Mice 1 mg/kg/day or 0.1 mg/kg/day peptide of amino acid sequence SEQ ID NO:4 subcutaneously (under the shoulder blade) in 100 microliter salt solution; • Groups 6 and 7: Mice 10 mg/kg/day or 1 mg/kg/day peptide of amino acid sequence SEQ ID NO:4 orally in 100 microliter salt solution; • Group 8: Rats, 10 microliter salt solution, intranasally; • Group 9: Rats. 0.1 mg/kg/day peptide of amino acid sequence SEQ ID NO:4 intranasally in 10 microliter salt solution.
After 14 days the animals were sacrificed and their liver, brain, kidneys and spleen were submitted for toxicity testing.

The subject of series [7] is LN229 (glioma) cells (ObR-positive). The series is classed as cell-based. The conditions noted are these: 2 h.
Description: as §1

In series [8] the test system is ObR-positive cancer cells (brain and breast). The class given is cell-based. The following applies: presence of exogenous leptin (6 nM).
The test system of series [9] is two brain tumor cell lines. In words: leptin receptor antagonism in brain tumor cell lines. The class given is cell-based.
For series [10] the following is noted: mouse, in vivo, ip.
Where [11] appears, read: 25% aqueous pooled mouse serum, 37° C., read-out: half-life in 25% serum.
The mark [12] stands for this setting: 100% pooled mouse serum, 37° C., read-out: half-life in 100% serum.
The mark [13] stands for this setting: ip bolus 0.5, 2 or 30 mg/kg, or 0.5 or 2 mg/kg/day for 10 days.
[14] abbreviates: mouse serum, read-out: half-life in mouse serum.

Read-outs that look alike come from different tables or passages of the source. Where a SMILES comes first, the peptide text is derived from it. Where no end group is shown, it is not given here. [ ]: non-standard residue; d: D form. NMeR = CN[C@@H](CCCNC(=N)N)C(=O)O; aThr = C[C@H](O)[C@H](N)C(=O)O; Nva = CCC[C@H](N)C(=O)O; Ahx = NCCCCCC(=O)O; βAla = NCCC(=O)O

The EC50 is the midpoint of the concentration-response curve. Usually IC50 stands for the concentration that inhibits the measured activity by half. Lower therefore signals higher potency. In general, half-life refers to how long it takes for the measured level to halve. The molecule `CCC[C@H](NC(=O)[C@H](CCC(=O)O)NC(=O)[C@@H](N)[C@@H](C)O)C(=O)N[C@H](C(=O)N[C@@H](C)C(=O)N[C@@H](CC(C)C)C(=O)N[C@@H](CO)C(=O)N[C@@H](CCCNC(=N)N)C(=O)NCCCCCC(N)=O)C(C)C` [SEQ ID NO:4, Thr-Glu-Nva-Val-Ala-Leu-Ser-Arg-AcpNH2] (H-TE[Nva]VALSR[Ahx]-NH2) returned an EC50 in series [1] of more than 1000 nM. Also, in series [2] (C57BL/6 mice), the “necropsy of the major organs” value was “no signs of toxicity”. Moreover, the IC50 in series [3] (2 h) and in series [7] was 2 to 3 nM throughout. Further, the half-life in [4] (setting [11]) turned out to be 20 min; in [4] (setting [12]), 5 min. For the same molecule, in [5] (female, Black/6, mouse, in vivo, ip, intraperitoneal bolus, read-out: highest studied dose found not toxic, acute), the NOAEL is 30 mg/kg. Further, the NOAEL at 240 h in series [5] (female, Black/6, mouse, in vivo, ip, intraperitoneal, 10 days, read-out: highest studied dose found not toxic, chronic) came to 2 mg/kg/day. Further, the “gross necropsy, treated versus non-treated” value in series [5] (setting [13]) is “no alteration”. In addition, in series [5] (setting [13]), the “liver, brain, spleen and kidney weights, treated versus non-treated” value is on record as “identical”. Also, the “toxic effects in liver, brain, kidneys and spleen” value in series [6] is “No obvious toxic effects”.
Take `CCC[C@H](NC(=O)[C@H](CCC(=O)O)NC(=O)[C@@H](CO)NC(C)=O)C(=O)N[C@H](C(=O)N[C@@H](C)C(=O)N[C@@H](CC(C)C)C(=O)N[C@@H](CO)C(=O)N(C)[C@@H](CCCNC(=N)N)C(=O)NCCC(N)=O)C(C)C` [SEQ ID NO:6, (D)-Ser-Glu-Nva-Val-Ala-Leu-Ser-N-MeArg-bAlaNH2] (Ac-[dS]E[Nva]VALS[NMeR][βAla]-NH2; N-terminus assumed): in series [1], the EC50 is more than 1000 nM and the pharmacology result was “super antagonist”. Also, the IC100 in [8] is on record as less than 1 nM. Besides, in series [9], the agonistic activity entry is given as “no agonistic activity” and the “cell growth without stimulation with leptin protein” value is reported as “does not influence cell growth”. Moreover, the “IC100, antagonistic activity against the leptin receptor” value in series [9] (two brain tumor cell lines in vitro) fell in the range of 10 to 100 pM.
In [1], `CCC[C@H](NC(=O)[C@H](CCCNC(=N)N)NC(=O)[C@H](CO)NC(=O)[C@H](CC(C)C)NC(=O)[C@H](C)NC(=O)[C@H](CCC)NC(=O)[C@H](CCC)NC(=O)[C@H](CCC(=O)O)NC(=O)[C@@H](N)[C@@H](C)O)C(N)=O` [SEQ ID NO:47, Thr-Glu-Nva-Nva-Ala-Leu-Ser-Arg-NvaNH2] (H-TE[Nva][Nva]ALSR[Nva]-NH2) had an EC50 of more than 1000 nM. Also, the half-life in series [4] (setting [14]) came out at 8 min.
Regarding `CCC[C@H](NC(=O)[C@H](CCCNC(=N)N)NC(=O)[C@H](CO)NC(=O)[C@H](CC(C)C)NC(=O)[C@H](C)NC(=O)[C@H](CCC)NC(=O)[C@H](CCC)NC(=O)[C@H](CCC(=O)O)NC(=O)[C@@H](NC(C)=O)[C@@H](C)O)C(N)=O` [SEQ ID NO:48, AcNH-Thr-Glu-Nva-Nva-Ala-Leu-Ser-Arg-NvaNH2] (Ac-TE[Nva][Nva]ALSR[Nva]-NH2), in [3], the “cell viability profile compared with the unprotected variant” value was “no change”. For the same molecule, the half-life in [4] (setting [14]) came out at 14 min.
Regarding `CCC[C@H](NC(=O)[C@H](CCC(=O)O)NC(=O)[C@@H](N)[C@H](C)O)C(=O)N[C@H](C(=O)N[C@@H](C)C(=O)N[C@@H](CC(C)C)C(=O)N[C@@H](CO)C(=O)N[C@@H](CCCNC(=N)N)C(=O)NCCCCCC(N)=O)C(C)C` [SEQ ID NO:49, alloThr-Glu-Nva-Val-Ala-Leu-Ser-Arg-AcpNH2] (H-[aThr]E[Nva]VALSR[Ahx]-NH2), the EC50 in series [1] is more than 1000 nM. Also, the half-life was determined as 40 min in [4] (setting [11]) and 10 min in [4] (setting [12]).
Regarding `CCC[C@H](NC(=O)[C@@H](N)CCC(=O)O)C(=O)N[C@H](C(=O)N[C@@H](C)C(=O)N[C@@H](CC(C)C)C(=O)N[C@@H](CO)C(=O)N[C@@H](CCCNC(=N)N)C(=O)NCCCCCC(N)=O)C(C)C` [SEQ ID NO:51, Glu-Nva-Val-Ala-Leu-Ser-Arg-AcpNH2] (H-E[Nva]VALSR[Ahx]-NH2; N-terminus assumed), in series [1], the EC50 was more than 500 nM and the pharmacology result is “weak full”. Further, the IC100 in series [8] is recorded as 100 nM.
Take “Alexa 680-labeled peptide of amino acid sequence SEQ ID NO:49: peptide of SEQ ID NO:49 labeled with the fluorescent dye Alexa 680 ([aThr]E[Nva]VALSR[Ahx]-NH2; not fully specified (N-terminus); printed as alloThr-Glu-Nva-Val-Ala-Leu-Ser-Arg-AcpNH2; also: Alexa 680 label, site not given here)”: the “migration into further tissues, blood-brain barrier penetration” value in series [10] is “migrated into the tail, limbs and the brain”.

B1: leptin: neurohormone, native ObR ligand; human leptin purchased from R&D Systems (protein, listed as Homo sapiens)
chain: VPIQKVQDDTKTLIKTIVTRINDISHTQSVSAKQRVTGLDFIPGLHPILSLSKMDQTLAVYQQVLTSLPSQNVLQIANDLENLRDLLHLLAFSKSCSLPQTSGLQKPESLDGVLEASLYSTEVVALSRLQGSLQDILQQLDVSPEC
For B1, the “reduction of normal weight gain compared to untreated mice” value in [2] (0.1 mg/kg/day intraperitoneally, day 8) amounted to 5%.
